molecular target: Maltase-glucoamylase (Homo sapiens, UniProt O43451); assay: Inhibition of alpha-glucosidase (unknown origin)
Sequence (O43451 whole entry): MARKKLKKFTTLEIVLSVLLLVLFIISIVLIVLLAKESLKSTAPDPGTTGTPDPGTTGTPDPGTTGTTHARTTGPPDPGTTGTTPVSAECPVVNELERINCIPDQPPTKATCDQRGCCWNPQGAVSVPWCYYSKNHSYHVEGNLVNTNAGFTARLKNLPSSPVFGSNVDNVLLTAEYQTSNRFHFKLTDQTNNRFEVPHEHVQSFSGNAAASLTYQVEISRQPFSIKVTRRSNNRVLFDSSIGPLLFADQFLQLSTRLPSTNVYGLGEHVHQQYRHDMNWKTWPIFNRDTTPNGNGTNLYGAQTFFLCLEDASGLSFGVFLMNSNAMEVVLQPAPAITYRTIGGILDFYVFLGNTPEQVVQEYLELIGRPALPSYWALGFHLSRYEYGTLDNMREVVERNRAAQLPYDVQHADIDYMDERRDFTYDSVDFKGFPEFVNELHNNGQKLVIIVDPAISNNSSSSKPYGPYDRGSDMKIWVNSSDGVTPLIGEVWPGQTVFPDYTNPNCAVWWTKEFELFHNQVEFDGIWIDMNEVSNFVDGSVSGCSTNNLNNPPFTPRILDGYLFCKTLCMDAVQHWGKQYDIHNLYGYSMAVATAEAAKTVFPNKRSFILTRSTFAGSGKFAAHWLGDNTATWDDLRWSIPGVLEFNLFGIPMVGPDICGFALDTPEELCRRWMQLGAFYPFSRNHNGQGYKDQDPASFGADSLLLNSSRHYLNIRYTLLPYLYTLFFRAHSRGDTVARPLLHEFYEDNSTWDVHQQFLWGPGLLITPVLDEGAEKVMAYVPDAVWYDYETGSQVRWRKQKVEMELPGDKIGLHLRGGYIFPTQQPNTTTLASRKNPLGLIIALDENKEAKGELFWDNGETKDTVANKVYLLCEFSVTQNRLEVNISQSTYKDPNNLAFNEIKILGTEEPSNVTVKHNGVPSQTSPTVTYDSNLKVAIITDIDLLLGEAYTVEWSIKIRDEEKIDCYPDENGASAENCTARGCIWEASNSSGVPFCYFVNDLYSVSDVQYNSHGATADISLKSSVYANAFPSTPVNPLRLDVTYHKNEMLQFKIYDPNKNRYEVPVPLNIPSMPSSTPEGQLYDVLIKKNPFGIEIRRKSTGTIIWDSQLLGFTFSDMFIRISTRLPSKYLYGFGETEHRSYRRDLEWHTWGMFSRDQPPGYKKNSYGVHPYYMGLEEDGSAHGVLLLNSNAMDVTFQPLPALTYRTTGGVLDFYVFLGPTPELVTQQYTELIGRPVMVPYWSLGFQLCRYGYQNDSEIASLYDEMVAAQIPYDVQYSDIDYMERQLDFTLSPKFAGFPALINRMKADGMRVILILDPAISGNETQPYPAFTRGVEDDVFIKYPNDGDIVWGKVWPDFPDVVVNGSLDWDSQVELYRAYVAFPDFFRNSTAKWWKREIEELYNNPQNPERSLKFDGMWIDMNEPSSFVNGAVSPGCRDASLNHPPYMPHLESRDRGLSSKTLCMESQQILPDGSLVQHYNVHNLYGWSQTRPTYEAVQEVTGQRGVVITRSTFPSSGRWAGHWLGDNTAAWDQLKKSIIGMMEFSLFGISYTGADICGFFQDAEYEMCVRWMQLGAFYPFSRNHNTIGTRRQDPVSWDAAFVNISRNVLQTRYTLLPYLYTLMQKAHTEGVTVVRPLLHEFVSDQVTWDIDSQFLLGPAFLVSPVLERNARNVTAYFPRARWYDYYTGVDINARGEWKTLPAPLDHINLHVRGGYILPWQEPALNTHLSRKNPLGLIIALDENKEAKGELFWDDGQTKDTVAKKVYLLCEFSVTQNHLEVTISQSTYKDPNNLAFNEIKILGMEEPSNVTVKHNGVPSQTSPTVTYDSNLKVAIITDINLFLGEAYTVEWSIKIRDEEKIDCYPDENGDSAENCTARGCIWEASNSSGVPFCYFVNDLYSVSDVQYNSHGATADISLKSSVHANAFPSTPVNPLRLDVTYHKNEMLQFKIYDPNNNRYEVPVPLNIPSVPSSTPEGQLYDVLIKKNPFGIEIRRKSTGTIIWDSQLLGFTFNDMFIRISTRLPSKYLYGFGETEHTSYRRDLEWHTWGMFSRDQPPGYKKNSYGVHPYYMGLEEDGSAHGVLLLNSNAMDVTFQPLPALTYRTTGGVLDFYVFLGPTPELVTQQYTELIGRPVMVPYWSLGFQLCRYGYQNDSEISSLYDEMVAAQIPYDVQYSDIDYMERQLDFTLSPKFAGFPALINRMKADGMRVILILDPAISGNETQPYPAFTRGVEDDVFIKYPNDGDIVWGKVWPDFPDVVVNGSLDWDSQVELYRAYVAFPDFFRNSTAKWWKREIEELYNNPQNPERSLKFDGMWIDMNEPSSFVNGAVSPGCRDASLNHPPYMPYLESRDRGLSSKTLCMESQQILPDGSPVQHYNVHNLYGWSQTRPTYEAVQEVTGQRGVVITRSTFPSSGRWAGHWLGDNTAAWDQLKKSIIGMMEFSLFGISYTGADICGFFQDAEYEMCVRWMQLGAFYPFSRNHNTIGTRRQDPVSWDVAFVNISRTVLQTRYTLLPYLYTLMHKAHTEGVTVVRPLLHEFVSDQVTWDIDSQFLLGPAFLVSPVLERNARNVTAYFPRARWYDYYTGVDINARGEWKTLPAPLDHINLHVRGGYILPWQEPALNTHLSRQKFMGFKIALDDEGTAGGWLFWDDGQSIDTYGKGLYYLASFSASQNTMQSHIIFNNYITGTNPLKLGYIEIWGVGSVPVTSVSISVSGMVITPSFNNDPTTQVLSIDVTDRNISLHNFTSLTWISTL

Row | SMILES | IC50 [µM]
1 | COc1ccc(CNC(=O)c2c(NC(=O)c3cccnc3)sc3c2CCCC3)cc1 | 30.2
2 | O=C(Nc1sc2c(c1C(=O)NCc1ccccc1)CCCC2)c1cccnc1 | 45.3
3 | O=C(Nc1sc2c(c1C(=O)NCc1ccccn1)CCCC2)c1cccnc1 | 64.1
4 | COc1cc(CNC(=O)c2c(NC(=O)c3cccnc3)sc3c2CCCC3)ccc1O | 9.9
5 | COC(=O)c1ccc(CNC(=O)c2c(NC(=O)c3cccnc3)sc3c2CCCC3)cc1 | 87.8
6 | COc1cc(CNC(=O)c2c(NC(=O)c3cccnc3)sc3c2CCCCC3)ccc1O | 35.4

Continued, values first:

Row | IC50 [µM] | SMILES
7 | 87.6 | COc1ccc(CNC(=O)c2c(NC(=O)c3cccnc3)sc3c2CCC3)cc1
8 | 82.5 | O=C(Nc1sc2c(c1C(=O)NCc1ccccc1)CCC2)c1cccnc1
9 | 93.6 | COc1cc(CNC(=O)c2c(NC(=O)c3cccnc3)sc3c2CCC3)ccc1O
10 | 507 | O=C(Nc1sc2c(c1C(=O)NCc1cccnc1)CCCC2)c1cccnc1
11 | 63.4 | O=C(Nc1sc2c(c1C(=O)NCc1ccccc1)CCCCC2)c1cccnc1
